{"source": "patent US20070276011A1", "about": "“Plasminogen Activator Inhibitor-1 Inhibitor” (priority 2003, published 2007)", "data": [{"biological_target": "recombinant human PAI-1 (Homo sapiens, UniProt P05121)", "sequence (P05121 24-402)": "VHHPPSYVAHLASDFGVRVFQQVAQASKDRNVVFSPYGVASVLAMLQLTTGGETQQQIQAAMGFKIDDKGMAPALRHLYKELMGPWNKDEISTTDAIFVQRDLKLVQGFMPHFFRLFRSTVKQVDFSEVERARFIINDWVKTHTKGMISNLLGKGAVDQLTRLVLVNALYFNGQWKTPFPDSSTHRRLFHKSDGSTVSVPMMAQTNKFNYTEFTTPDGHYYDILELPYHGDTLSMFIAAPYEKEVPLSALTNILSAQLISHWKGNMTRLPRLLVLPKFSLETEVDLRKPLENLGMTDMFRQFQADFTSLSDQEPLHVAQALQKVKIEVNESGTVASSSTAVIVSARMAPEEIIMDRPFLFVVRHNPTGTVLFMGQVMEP", "test": "PAI-1 inhibitory activity, Test Method A (tPA fluorogenic substrate, Tris buffer pH8.0, 37 C)", "format": "biochemical", "details": "25 μM test compound; Test Method A", "description": "(§1) To this solution, 50 μL solution of 400 μM fluogenic substrate for tPA (Pyr-Gly-Arg-MCA, Peptide Institute, Inc.) adjusted with the same buffer was added, and reacted for 30 minutes at 37° C. The reaction was stopped by adding 50 μL of 2% acetic acid. Fluorescence was measured at the excitation wavelength=360 nm, emission wavelength=460 or 465 nm using a microplate reader (SPECTRAFLUOR or GENios) by TECAN. The fluorescence intensities in the presence of the PAI-1 as the control (DMSO) or in the absence of the PAI-1 (tPA alone) were taken as 100% and 0% of PAI-1 activities, respectively, and inhibitory ratios of PAI-1 activities in the presence of the test compound were obtained.\n(§2) <Composition of the Tris Buffer (pH8.0)>", "units": {"Inhibitory Ratio at 25 μM (%)": "%"}, "values": [{"smiles": "O=C1SC(=Cc2ccc(O)c(-c3c(O)cccc3O)c2)C(=O)N1Cc1ccc(Cl)c(Cl)c1", "note": "[compound 449]", "Inhibitory Ratio at 25 μM (%)": ">99"}, {"smiles": "O=C(Nc1cccc(O)c1)c1cc(C=C2SC(=O)N(Cc3ccc(Cl)c(Cl)c3)C2=O)ccc1O", "note": "[compound 356]", "Inhibitory Ratio at 25 μM (%)": ">99"}, {"smiles": "O=C(Nc1cccc(C=C2SC(=O)N(Cc3ccc(Cl)c(Cl)c3)C2=O)c1)c1ccc(O)c(O)c1", "note": "[compound 370]", "Inhibitory Ratio at 25 μM (%)": ">99"}, {"smiles": "O=C1C(=Cc2ccc(O)cc2)C(c2ccc(O)cc2)=NN1c1cc(Cl)cc(Cl)c1", "note": "[compound 511]", "Inhibitory Ratio at 25 μM (%)": ">99"}, {"smiles": "O=C(Nc1cc(C(F)(F)F)cc(C(F)(F)F)c1)c1cc(C=C2SC(=O)N(Cc3ccc(Cl)c(Cl)c3)C2=O)ccc1O", "note": "[compound 404]", "Inhibitory Ratio at 25 μM (%)": ">99"}, {"smiles": "CCOC1=NN(c2ccc([N+](=O)[O-])cc2)C(=O)C1=Cc1c(O)cccc1OC", "note": "[compound 550, 4-(2-hydroxy-6-methoxybenzylidene)-1-(4-nitrophenyl)-3-ethoxy-2-pyrazolin-5-one]", "Inhibitory Ratio at 25 μM (%)": 66}, {"smiles": "COc1ccc(NC(=O)c2cc(C=C3SC(=O)N(Cc4ccc(C(F)(F)F)cc4)C3=O)ccc2O)cc1OC", "note": "[compound 391, 5-[4-Hydroxy-3-(3,4-dimethoxyphenylcarbamoyl)benzylidene]-3-[4-(trifluoromethyl)benzyl]thiazolidine-2,4-dione]", "Inhibitory Ratio at 25 μM (%)": ">99"}, {"smiles": "CC(C)C1=NN(c2cc(Cl)cc(Cl)c2)C(=O)C1=Cc1cc(Br)ccc1O", "note": "[compound 526]", "Inhibitory Ratio at 25 μM (%)": ">99"}, {"smiles": "O=C1SC(=Cc2ccc(O)c(O)c2)C(=O)N1Cc1cc(C(F)(F)F)ccc1C(F)(F)F", "note": "[compound 305, 5-(3,4-Dihydroxybenzylidene)-3-[2,5-bis(trifluoromethyl)benzyl]-thiazolidine-2,4-dione]", "Inhibitory Ratio at 25 μM (%)": ">99"}, {"smiles": "COc1cccc(NC(=O)c2cc(C=C3SC(=O)N(Cc4ccc(Cl)c(Cl)c4)C3=O)ccc2O)c1OC", "note": "[compound 434, 5-[4-hydroxy-3-(2,3-dimethoxyphenylcarbamoyl)benzylidene]-3-(3,4-dichlorobenzyl)thiazolidine-2,4-dione]", "Inhibitory Ratio at 25 μM (%)": ">99"}, {"smiles": "COC(=O)c1cccc(NC(=O)c2cc(C=C3SC(=O)N(Cc4ccc(Cl)c(Cl)c4)C3=O)ccc2O)c1", "note": "[compound 417, 5-{4-hydroxy-3-[3-(methoxycarbonyl)phenylcarbamoyl]benzylidene}-3-(3,4-dichlorobenzyl)thiazolidine-2,4-dione]", "Inhibitory Ratio at 25 μM (%)": 59}, {"smiles": "COc1ccc(C(=O)Nc2cc(C=C3SC(=O)N(Cc4ccc(Cl)c(Cl)c4)C3=O)ccc2OC)cc1", "note": "[compound 381, 5-[4-methoxy-3-(4-methoxybenzoylamino)benzylidene]-3-(3,4-dichlorobenzyl)thiazolidine-2,4-dione]", "Inhibitory Ratio at 25 μM (%)": 27}, {"smiles": "Cc1ccc(O)c(NC(=O)c2cc(C=C3SC(=O)N(Cc4ccc(Cl)c(Cl)c4)C3=O)ccc2O)c1", "note": "[compound 457]", "Inhibitory Ratio at 25 μM (%)": ">99"}, {"smiles": "CCOC(=O)CCC1=NN(c2ccccc2)C(=O)C1=Cc1ccc2c(c1)OCO2", "note": "[compound 512, 4-(3,4-Methylenedioxybenzylidene)-1-phenyl-3-[2-(ethoxycarbonyl)ethyl]-2-pyrazolin-5-one]", "Inhibitory Ratio at 25 μM (%)": 52}, {"smiles": "O=C(Nc1cc(C=C2SC(=O)N(Cc3ccc(Cl)c(Cl)c3)C2=O)ccc1O)c1ccc(O)c(O)c1", "note": "[compound 380]", "Inhibitory Ratio at 25 μM (%)": ">99"}, {"smiles": "O=C1C(=Cc2cccc(O)c2)C(c2ccc(O)cc2)=NN1c1cc(Cl)cc(Cl)c1", "note": "[compound 509, 4-(3-Hydroxybenzylidene)-1-(3,5-dichlorophenyl)-3-(4-hydroxyphenyl)-2-pyrazolin-5-one]", "Inhibitory Ratio at 25 μM (%)": ">99"}, {"smiles": "O=C(Nc1cc(C(F)(F)F)ccc1C(F)(F)F)c1cc(C=C2SC(=O)N(Cc3ccc(Cl)c(Cl)c3)C2=O)ccc1O", "note": "[compound 403]", "Inhibitory Ratio at 25 μM (%)": 58}]}, {"biological_target": "recombinant human PAI-1 (Homo sapiens, UniProt P05121)", "test": "PAI-1 inhibitory activity, Test Method A (tPA fluorogenic substrate, Tris buffer pH8.0, 37 C)", "format": "biochemical", "details": "test compound 25 μM; Test Method A", "description": "as §1, §2", "units": {"Inhibitory Ratio at 25 μM (%)": "%"}, "values": [{"smiles": "O=C1SC(=Cc2ccc(O)c([N+](=O)[O-])c2)C(=O)N1Cc1ccc(Cl)c(Cl)c1", "note": "[compound 85, 5-(4-hydroxy-3-nitrobenzylidene)-3-(3,4-dichlorobenzyl)-thiazolidine-2,4-dione]", "Inhibitory Ratio at 25 μM (%)": ">99"}, {"smiles": "COC(=O)c1cccc(N2N=C(C(C)(C)C)C(=Cc3ccc(Cl)c(Cl)c3)C2=O)c1", "note": "[compound 197]", "Inhibitory Ratio at 25 μM (%)": 32}, {"smiles": "CCOC(=O)c1cc(C=C2SC(=O)N(Cc3cc(C(F)(F)F)cc(C(F)(F)F)c3)C2=O)ccc1O", "note": "[compound 28, 5-(3-Ethoxycarbonyl-4-hydroxybenzylidene)-3-[3,5-bis(trifluoromethyl)-benzyl]thiazolidine-2,4-dione]", "Inhibitory Ratio at 25 μM (%)": 62}, {"smiles": "CC1=NN(c2cccc(C(=O)O)c2)C(=O)C1=Cc1ccc(-c2cc(Cl)cc(Cl)c2)o1", "note": "[compound 191]", "Inhibitory Ratio at 25 μM (%)": 59}, {"smiles": "O=C1SC(=Cc2cccc(O)c2O)C(=O)N1Cc1ccc(Cl)cc1", "note": "[compound 32, 5-(2,3-Dihydroxybenzylidene)-3-(4-chlorobenzyl)thiazolidine-2,4-dione]", "Inhibitory Ratio at 25 μM (%)": ">99"}, {"smiles": "O=C(O)c1cccc(N2N=C(C(F)(F)F)C(=Cc3ccc(-c4cc(C(F)(F)F)cc(C(F)(F)F)c4)o3)C2=O)c1", "note": "[compound 179]", "Inhibitory Ratio at 25 μM (%)": 62}, {"smiles": "O=C1SC(=Cc2ccc(O)c(O)c2)C(=O)N1Cc1ccc(Cl)cc1", "note": "[compound 33]", "Inhibitory Ratio at 25 μM (%)": ">99"}, {"smiles": "O=C(O)c1ccc(Cl)c(-c2ccc(C=C3C(=O)N(c4cccc(C(F)(F)F)c4)N=C3O)o2)c1", "note": "[compound 220]", "Inhibitory Ratio at 25 μM (%)": ">99"}, {"smiles": "O=C1SC(=Cc2ccc(O)c(O)c2)C(=O)N1Cc1cccc([N+](=O)[O-])c1", "note": "[compound 48, 5-(3,4-Dihydroxybenzylidene)-3-(3-nitrobenzyl)thiazolidine-2,4-dione]", "Inhibitory Ratio at 25 μM (%)": 67}, {"smiles": "O=C1C(=Cc2ccc(-c3cc(Cl)cc(Cl)c3)o2)C(c2ccccc2)=NN1c1cccc([N+](=O)[O-])c1", "note": "[compound 167, 4-{[5-(3,5-Dichlorophenyl)furan-2-yl]methylene}-1-(3-nitrophenyl)-3-phenyl-2-pyrazolin-5-one]", "Inhibitory Ratio at 25 μM (%)": 50}, {"smiles": "O=C1SC(=Cc2ccc(O)c(O)c2)C(=O)N1Cc1ccc(Br)cc1", "note": "[compound 37]", "Inhibitory Ratio at 25 μM (%)": ">99"}, {"smiles": "CCOC(=O)C1=NN(c2cccc(C(=O)OCC)c2)C(=O)C1=Cc1ccc2c(c1)OCO2", "note": "[compound 196]", "Inhibitory Ratio at 25 μM (%)": 54}, {"smiles": "CC1=NN(c2ccc(Cl)c(Cl)c2)C(=O)C1=Cc1cc(O)c(O)c(O)c1", "note": "[compound 144, 4-(3,4,5-Trihydroxybenzylidene)-1-(3,4-dichlorophenyl)-3-methyl-2-pyrazolin-5-one]", "Inhibitory Ratio at 25 μM (%)": 53}, {"smiles": "O=C(O)c1cccc(N2N=C(C(F)(F)F)C(=Cc3ccc(-c4cc(Cl)cc(Cl)c4)o3)C2=O)c1", "note": "[compound 162]", "Inhibitory Ratio at 25 μM (%)": 56}, {"smiles": "O=C1C(=Cc2cc(O)c(O)c(O)c2)C(C(F)(F)F)=NN1c1cc(Cl)cc(Cl)c1", "note": "[compound 149]", "Inhibitory Ratio at 25 μM (%)": ">99"}, {"smiles": "Nc1ccc(C=C2SC(=O)N(Cc3ccc(Cl)c(Cl)c3)C2=O)cc1O", "note": "[compound 88]", "Inhibitory Ratio at 25 μM (%)": 65}, {"smiles": "O=C1SC(=Cc2ccc(O)cc2O)C(=O)N1Cc1ccc(Cl)c(Cl)c1", "note": "[compound 45]", "Inhibitory Ratio at 25 μM (%)": ">99"}, {"smiles": "Nc1cc(C=C2SC(=O)N(Cc3ccc(Cl)c(Cl)c3)C2=O)ccc1O", "note": "[compound 86]", "Inhibitory Ratio at 25 μM (%)": 21}, {"smiles": "O=C1SC(=Cc2ccc(O)c(O)c2)C(=O)N1Cc1ccc(Cl)c(Cl)c1", "note": "[compound 9]", "Inhibitory Ratio at 25 μM (%)": ">99"}, {"smiles": "O=C1SC(=Cc2cccc(O)c2O)C(=O)N1Cc1cccc([N+](=O)[O-])c1", "note": "[compound 49]", "Inhibitory Ratio at 25 μM (%)": 93}]}]}
